# Source: ChEMBL document CHEMBL1129817, “Novel water-soluble analogues retaining potent antitumor activity of RA-VII, a cyclic hexapeptide from Rubia plants” (Bioorg Med Chem Lett, 1997)
# Values joined by “and” are separate entries in the source; they are usually repeats but may differ in a detail not shown here. Equal values may be shown once.
# Experiments:
# P388 [1] = assay: Percentage of the median survival time of P388 leukemic mice (T) at intraperitoneal administration of 0.4 mg/kg dose to that of controls (C); format: functional, Mus musculus
# P388 [2] = assay: Percentage of the median survival time of P388 leukemic mice (T) at intraperitoneal administration of 6.25 mg/kg dose to that of controls (C); format: functional, Mus musculus
# P388 [3] = assay: Percentage of the median survival time of P388 leukemic mice (T) at intraperitoneal administration of 1.6 mg/kg dose to that of controls (C); format: functional, Mus musculus
# KB = assay: Compound was evaluated for cytotoxicity against human epidermoid carcinoma of nasopharynx (KB) cells; format: functional, cell-based
# [4] = system: KATO III stomach cancer cell line; assay: Compound was evaluated for cytotoxicity against KATO-III gastric carcinoma cells; format: functional, cell-based; conditions: Homo sapiens
# L1210 = assay: Compound was evaluated for cytotoxicity against L1210 leukemia cells; format: functional, cell-based; conditions: Mus musculus
# P388 [5] = assay: Percentage of the median survival time of P388 leukemic mice (T) at intraperitoneal administration of 6.25 mg/kg dose to that of controls (C); Toxic; format: functional, organism-based; parameters: dose 6.25 mg/kg; conditions: Mus musculus
# B16 [6] = assay: Compound was evaluated for percent tumor volume against B16 melanoma in mice (T) at 3.13 mg/kg intravenous administration after 11 days ot that of control (C); format: functional, Mus musculus
# Colon 26 [7] = assay: Compound was evaluated for percent tumor volume against colon 26 cells in mice (T) at a dose of 3.13 mg/kg intravenous administration after 10 days ot that of control (C); format: functional, Mus musculus
# B16 [8] = assay: Compound was evaluated for percent tumor volume against B16 melanoma in mice (T) at 3.13 mg/kg intravenous administration after 8 days ot that of control (C); format: functional, Mus musculus
# Colon 26 [9] = assay: Compound was evaluated for percent tumor volume against colon 26 cells in mice (T) at a dose of 3.13 mg/kg intravenous administration after 12 days ot that of control (C); format: functional, Mus musculus
# B16 [10] = assay: Compound was evaluated for percent tumor volume against B16 melanoma in mice (T) at 1.6 mg/kg intravenous administration after 11 days ot that of control (C); format: functional, Mus musculus
# Colon 26 [11] = assay: Compound was evaluated for percent tumor volume against colon 26 cells in mice (T) at a dose of 0.8 mg/kg intravenous administration after 12 days ot that of control (C); format: functional, Mus musculus
# Colon 26 [12] = assay: Compound was evaluated for percent tumor volume against colon 26 cells in mice (T) at a dose of 1.6 mg/kg intravenous administration after 10 days ot that of control (C); format: functional, Mus musculus
# Colon 26 [13] = assay: Compound was evaluated for percent tumor volume against colon 26 cells in mice (T) at a dose of 0.8 mg/kg intravenous administration after 10 days ot that of control (C); format: functional, Mus musculus
# Colon 26 [14] = assay: Compound was evaluated for percent tumor volume against colon 26 cells in mice (T) at a dose of 3.13 mg/kg intravenous administration after 8 days ot that of control (C); format: functional, Mus musculus
# B16 [15] = assay: Compound was evaluated for percent tumor volume against B16 melanoma in mice (T) at 1.6 mg/kg intravenous administration after 8 days ot that of control (C); format: functional, Mus musculus
# Colon 26 [16] = assay: Compound was evaluated for percent tumor volume against colon 26 cells in mice (T) at a dose of 1.6 mg/kg intravenous administration after 12 days ot that of control (C); format: functional, Mus musculus
# Colon 26 [17] = assay: Compound was evaluated for percent tumor volume against colon 26 cells in mice (T) at a dose of 0.8 mg/kg intravenous administration after 8 days ot that of control (C); format: functional, Mus musculus
# Colon 26 [18] = assay: Compound was evaluated for percent tumor volume against colon 26 cells in mice (T) at a dose of 1.6 mg/kg intravenous administration after 8 days ot that of control (C); format: functional, Mus musculus
# B16 [19] = assay: Compound was evaluated for percent tumor volume against B16 melanoma in mice (T) at 1.6 mg/kg intravenous administration after 13 days ot that of control (C); format: functional, Mus musculus
# B16 [20] = assay: Compound was evaluated for percent tumor volume against B16 melanoma in mice (T) at 6.25 mg/kg intravenous administration after 11 days ot that of control (C); format: functional, Mus musculus
# Colon 26 [21] = assay: Compound was evaluated for percent tumor volume against colon 26 cells in mice (T) at a dose of 3.13 mg/kg intravenous administration after 10 days ot that of control (C), (Number of mice surviving / number of mice tested; T/C), 7/8; format: functional, Mus musculus
# Colon 26 [22] = assay: Compound was evaluated for percent tumor volume against colon 26 cells in mice (T) at a dose of 3.13 mg/kg intravenous administration after 12 days ot that of control (C), (Number of mice surviving / number of mice tested); T/C, 6/8; format: functional, Mus musculus
# B16 [23] = assay: Compound was evaluated for percent tumor volume against B16 melanoma in mice (T) at 3.13 mg/kg intravenous administration after 13 days ot that of control (C); format: functional, Mus musculus
# B16 [24] = assay: Compound was evaluated for percent tumor volume against B16 melanoma in mice (T) at 6.25 mg/kg intravenous administration after 8 days ot that of control (C); format: functional, Mus musculus
# Colon 26 [25] = assay: Compound was evaluated for percent tumor volume against colon 26 cells in mice (T) at a dose of 6.25 mg/kg intravenous administration after 8 days ot that of control (C); format: functional, Mus musculus
# Colon 26 [26] = assay: Compound was evaluated for percent tumor volume against colon 26 cells in mice (T) at a dose of 6.25 mg/kg intravenous administration after 10 days ot that of control (C); format: functional, Mus musculus
# Colon 26 [27] = assay: Compound was evaluated for percent tumor volume against colon 26 cells in mice (T) at a dose of 6.25 mg/kg intravenous administration after 12 days ot that of control (C), (Number of mice surviving / number of mice tested); T/C, 7/8; format: functional, Mus musculus
compound,measurement,setting,value
CCN(CC)CCOc1ccc2cc1Oc1cccc(c1)C[C@H]1C(=O)N(C)[C@@H](C2)C(=O)N[C@H](C)C(=O)N[C@@H](C)C(=O)N(C)[C@@H](Cc2ccc(OC)cc2)C(=O)N[C@@H](C)C(=O)N1C [listing 1 of 2 here],T/C,P388 [1],116%
same,T/C,P388 [2],136%
same,T/C,P388 [3],124%
COc1ccc(C[C@H]2C(=O)N[C@@H](C)C(=O)N(C)[C@H]3Cc4cccc(c4)Oc4cc(ccc4OC)C[C@@H](C(=O)N[C@H](C)C(=O)N[C@@H](C)C(=O)N2C)N(C)C3=O)cc1,IC50,KB,2.3 ng/mL
same,IC50,[4],2.9 ng/mL
same,IC50,L1210,1.2 ng/mL
COc1ccc(C[C@H]2C(=O)N[C@@H](C)C(=O)N(C)[C@H]3Cc4cccc(c4)Oc4cc(ccc4OCCN(Cc4ccccc4)Cc4ccccc4)C[C@@H](C(=O)N[C@H](C)C(=O)N[C@@H](C)C(=O)N2C)N(C)C3=O)cc1 [listing 1 of 2 here],IC50,KB,59 ng/mL
COc1ccc(C[C@H]2C(=O)N[C@@H](C)C(=O)N(C)[C@H]3Cc4cccc(c4)Oc4cc(ccc4OCCN(Cc4ccccc4)Cc4ccccc4)C[C@@H](C(=O)N[C@H](C)C(=O)N[C@@H](C)C(=O)N2C)N(C)C3=O)cc1 [listing 2 of 2 here],Activity,P388 [1],105%
same,Activity,P388 [2],134%
same,Activity,P388 [3],119%
COc1ccc(C[C@H]2C(=O)N[C@@H](C)C(=O)N(C)[C@H]3Cc4cccc(c4)Oc4cc(ccc4OCCN4CCCCCC4)C[C@@H](C(=O)N[C@H](C)C(=O)N[C@@H](C)C(=O)N2C)N(C)C3=O)cc1 [listing 1 of 2 here],IC50,KB,7.6 ng/mL
COc1ccc(C[C@H]2C(=O)N[C@@H](C)C(=O)N(C)[C@H]3Cc4cccc(c4)Oc4cc(ccc4OCCN(C(C)C)C(C)C)C[C@@H](C(=O)N[C@H](C)C(=O)N[C@@H](C)C(=O)N2C)N(C)C3=O)cc1 [listing 1 of 2 here],IC50,KB,4.6 ng/mL
same,IC50,[4],1.5 ng/mL
same,IC50,L1210,4.5 ng/mL
COc1ccc(C[C@H]2C(=O)N[C@@H](C)C(=O)N(C)[C@H]3Cc4cccc(c4)Oc4cc(ccc4OCCN4CCCC4)C[C@@H](C(=O)N[C@H](C)C(=O)N[C@@H](C)C(=O)N2C)N(C)C3=O)cc1 [listing 1 of 2 here],T/C,P388 [1],112%
same,T/C,P388 [2],134%
same,T/C,P388 [3],124%
COc1ccc(C[C@H]2C(=O)N[C@@H](C)C(=O)N(C)[C@H]3Cc4cccc(c4)Oc4cc(ccc4OCCN4CCCCC4)C[C@@H](C(=O)N[C@H](C)C(=O)N[C@@H](C)C(=O)N2C)N(C)C3=O)cc1 [listing 1 of 2 here],IC50,KB,8.7 ng/mL
COc1ccc(C[C@H]2C(=O)N[C@H](C)C(=O)N(C)[C@H]3Cc4cccc(c4)Oc4cc(ccc4OC)C[C@@H](C(=O)N[C@H](C)C(=O)N[C@@H](C)C(=O)N2C)N(C)C3=O)cc1,T/C,P388 [5],Toxic
COc1ccc(C[C@H]2C(=O)N[C@@H](C)C(=O)N(C)[C@H]3Cc4cccc(c4)Oc4cc(ccc4OCCN(C)C)C[C@@H](C(=O)N[C@H](C)C(=O)N[C@@H](C)C(=O)N2C)N(C)C3=O)cc1 [listing 1 of 2 here],IC50,KB,25 ng/mL
same,IC50,[4],79 ng/mL
same,IC50,L1210,18 ng/mL
COc1ccc(C[C@H]2C(=O)N[C@@H](C)C(=O)N(C)[C@H]3Cc4cccc(c4)Oc4cc(ccc4OCCN(C(C)C)C(C)C)C[C@@H](C(=O)N[C@H](C)C(=O)N[C@@H](C)C(=O)N2C)N(C)C3=O)cc1 [listing 2 of 2 here],T/C,B16 [6],32.1%
same,T/C,P388 [1],151%
same,T/C,Colon 26 [7],38.5%
same,T/C,B16 [8]; 3.13 mg/kg,57.5% and 32.1%
same,T/C,Colon 26 [9],99.6%
same,T/C,B16 [10],43.3%
same,T/C,Colon 26 [11],136.3%
same,T/C,Colon 26 [12],57.1%
same,T/C,Colon 26 [13],83.4%
same,T/C,Colon 26 [14],34.5%
same,T/C,P388 [2],170%
same,T/C,B16 [15],55.9%
same,T/C,Colon 26 [16],143.1%
same,T/C,Colon 26 [17],42.1%
same,T/C,P388 [3],157%
same,T/C,Colon 26 [18],41.5%
same,T/C,B16 [19],69.7%
CCN(CCOc1ccc2cc1Oc1cccc(c1)C[C@H]1C(=O)N(C)[C@@H](C2)C(=O)N[C@H](C)C(=O)N[C@@H](C)C(=O)N(C)[C@@H](Cc2ccc(OC)cc2)C(=O)N[C@@H](C)C(=O)N1C)c1ccccc1 [listing 1 of 2 here],T/C,P388 [1],116%
same,T/C,P388 [2],150%
same,T/C,P388 [3],133%
COc1ccc(C[C@H]2C(=O)N[C@@H](C)C(=O)N(C)[C@H]3Cc4cccc(c4)Oc4cc(ccc4OCCN4CCCCCC4)C[C@@H](C(=O)N[C@H](C)C(=O)N[C@@H](C)C(=O)N2C)N(C)C3=O)cc1 [listing 2 of 2 here],T/C,P388 [1],112%
same,T/C,P388 [2],137%
same,T/C,P388 [3],123%
COc1ccc(C[C@H]2C(=O)N[C@@H](C)C(=O)N(C)[C@H]3Cc4cccc(c4)Oc4cc(ccc4OCCN4CCCC4)C[C@@H](C(=O)N[C@H](C)C(=O)N[C@@H](C)C(=O)N2C)N(C)C3=O)cc1 [listing 2 of 2 here],IC50,KB,19 ng/mL
COc1ccc(C[C@H]2C(=O)N[C@@H](C)C(=O)N(C)[C@H]3Cc4cccc(c4)Oc4cc(ccc4OCCN4CCCCC4)C[C@@H](C(=O)N[C@H](C)C(=O)N[C@@H](C)C(=O)N2C)N(C)C3=O)cc1 [listing 2 of 2 here],T/C,P388 [1],115%
same,T/C,P388 [2],127%
same,T/C,P388 [3],123%
COc1ccc(C[C@H]2C(=O)N[C@@H](C)C(=O)N(C)[C@H]3Cc4cccc(c4)Oc4cc(ccc4OCCN(C)C)C[C@@H](C(=O)N[C@H](C)C(=O)N[C@@H](C)C(=O)N2C)N(C)C3=O)cc1 [listing 2 of 2 here],T/C,B16 [6],67.9%
same,T/C,P388 [1],127%
same,T/C,B16 [8],77.2%
same,T/C,B16 [20],40.8%
same,T/C,Colon 26 [12],76.7%
same,T/C,Colon 26 [14],54.4%
same,T/C,P388 [2],153%
same,T/C,Colon 26 [21],55.8%
same,T/C,Colon 26 [22],101.5%
same,T/C,B16 [23],140.5%
same,T/C,Colon 26 [16],102.5%
same,T/C,B16 [24],57% and 40.8%
same,T/C,P388 [3],145%
same,T/C,Colon 26 [18],84.1%
same,T/C,Colon 26 [25],48.1%
same,T/C,Colon 26 [26],70%
same,T/C,Colon 26 [27],125.5%
CCN(CCOc1ccc2cc1Oc1cccc(c1)C[C@H]1C(=O)N(C)[C@@H](C2)C(=O)N[C@H](C)C(=O)N[C@@H](C)C(=O)N(C)[C@@H](Cc2ccc(OC)cc2)C(=O)N[C@@H](C)C(=O)N1C)c1ccccc1 [listing 2 of 2 here],IC50,KB,9.9 ng/mL
CCN(CC)CCOc1ccc2cc1Oc1cccc(c1)C[C@H]1C(=O)N(C)[C@@H](C2)C(=O)N[C@H](C)C(=O)N[C@@H](C)C(=O)N(C)[C@@H](Cc2ccc(OC)cc2)C(=O)N[C@@H](C)C(=O)N1C [listing 2 of 2 here],IC50,KB,10 ng/mL
